Assay results from publication PMC5587910, “Methionine Sulfoxide Reductase A (MsrA) and Its Function in Ubiquitin-Like Protein Modification in Archaea” (mBio, 2017).

Assays:
[1] = biological target: T1, HvMsrA (MsrA-StrepII) (Haloferax volcanii, UniProt D4GQQ9); assay: MSO-peptide reductase assay, HPLC of dabsyl-Met; assay type: biochemical
T1 construct: gene msrA1; C-terminal StrepII tag; expressed in E. coli Rosetta (DE3), Strep-Tactin and Superdex 75 purified; 21 kDa
T1 sequence (D4GQQ9 1-189): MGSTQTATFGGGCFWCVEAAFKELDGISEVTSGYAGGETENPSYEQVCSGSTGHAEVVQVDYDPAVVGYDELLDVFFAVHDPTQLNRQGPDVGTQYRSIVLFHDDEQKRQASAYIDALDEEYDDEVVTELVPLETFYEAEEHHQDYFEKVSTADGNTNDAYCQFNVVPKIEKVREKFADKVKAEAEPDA

[2] = biological target: T2, HvMsrB (MsrB-StrepII) (Haloferax volcanii, UniProt D4GVV0); assay: MSO-peptide reductase assay of cell lysate, HPLC of dabsyl-Met; assay type: biochemical; settings: 400 µg cell extract, 200 µM dabsyl-MSO, 20 mM DTT, 25 mM Tris-Cl pH 7.5, 37°C
T2 construct: StrepII-tagged, expressed from plasmid in Hfx. volcanii deletion strains; cell lysate
T2 sequence (D4GVV0 entry or part of it): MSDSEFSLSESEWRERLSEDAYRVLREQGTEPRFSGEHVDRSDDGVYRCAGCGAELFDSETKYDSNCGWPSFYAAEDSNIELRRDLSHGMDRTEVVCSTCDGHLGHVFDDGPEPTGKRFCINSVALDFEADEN

SMILES | MSO-peptide reductase assay, HPLC of dabsyl-Met ([1]; inhibitor, 0 to 20 mM MSO, dabsyl-MSO substrate, DTT, Tris-Cl pH 7.5, NaCl 0.2 to 2 M, 37°C, probably competing substrate) | MSO-peptide reductase assay, HPLC of dabsyl-Met ([1]; 200 µM dabsyl-MSO, 20 mM DTT, 25 mM Tris-Cl pH 7.5, 37°C, 30 min) | MSO-peptide reductase assay of cell lysate, HPLC of dabsyl-Met [2]
C[S+]([O-])CC[C@H](N)C(=O)O (stereo partly drawn) [MSO] | DMSO and MSO inhibited the MSO-peptide reductase activity of HvMsrA in a dose-dependent manner |  | 
CN(C)c1ccc(N=Nc2ccc(S(=O)(=O)N[C@@H](CC[S+](C)[O-])C(=O)O)cc2)cc1 (stereo partly drawn) [dabsyl-MSO] |  | HvMsrA was found to catalyze the reduction of the MSO peptide | HvMsrB was also found to catalyze MSO-peptide reductase activity
